From patent publication US10336792B2, “Antimicrobial peptide dendrimers” (priority 2014, dated 2019)

System: P. aeruginosa PEJ2.6, PEJ9.1, ZEM1.A, ZEM9.A (clinical isolates)
Type: cell-based, Pseudomonas aeruginosa
Details: MH medium, 12-18 h
Outline: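 Broth microdilution in Müller-Hinton medium, two-fold serial dilutions from a starting 32–256 μg/mL, compounds dissolved in PBS; inoculum about 5×10^5 CFU, incubated 37° C ~18 h. MIC taken as lowest concentration with no visible growth by eye; polymyxin as reference.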

## Polymyxin B [reference compound]
  MIC P. aeruginosa MDR clinical isolate PEJ2.6: 1 µg/mL
  MIC P. aeruginosa MDR clinical isolate PEJ9.1: 2 µg/mL
  MIC P. aeruginosa MDR clinical isolate ZEM1A: <1 µg/mL
  MIC P. aeruginosa MDR clinical isolate ZEM9A: 8 µg/mL
